SMILES strings stand for the structures.

Results on 2 compounds are retold here after US9867825B2, “Pharmaceutical combination comprising binimetinib” (Novartis AG, priority 2012, dated 2018).

Data set [1] concerns Hs 944.T melanoma cells with activated NRAS. Kind of data set: BrdU uptake assay, Hs 944.T. The format is cell-based. To be noted: Hs 944.T cells. The protocol:
(§1) Three melanoma cell lines, MEL-JUSO, SK-MEL2 and Hs 944.T, which harbor the Q61X activating mutation of NRAS, were tested with Compound A and Compound B to measure their sensitivity to the inhibitors.

Data set [2] deals with SK-MEL2 melanoma cells with activated NRAS. Description: BrdU uptake assay, SK-MEL2. Format: cell-based. To be noted: Homo sapiens, SK-MEL-2. The protocol: as §1
For data set [3], the system named is MEL-JUSO melanoma cells with activated NRAS. Kind of data set: BrdU uptake assay, MEL-JUSO. The format is cell-based. To be noted: Homo sapiens. The protocol: as §1
The test system of data set [4] is MEL-JUSO xenografts. Description: Compound A and Compound B efficacy in MEL-JUSO xenografts (NRAS mutant melanoma). Format: in vivo. To be noted: oral. The text has this: The oncogenic drivers in a sizable fraction of melanomas are mutant alleles of NRAS that encode one of several variants at position Q61 in the protein. Similar to activated alleles of BRAF, these alleles encode constitutively activated forms of the protein that drive signaling through the MAPK pathway. One consequence of the activation of MAPK signaling is the elevation of cyclin D1 levels that help drive cell cycle progression. […] Based on these observations, the single agent and combination effects of Compound A, and the MEK1/2 inhibitor Compound B, on the in vivo proliferation of MEL-JUSO melanoma model, harboring mutant alleles of NRAS was studied. […] T/C % is defined as the mean change in tumor volume from the time of treatment initiation to the end of study. The % regression is calculated as 100×ΔT/Tinitial if ΔT<0. Complete regression is defined as non-palpable tumor.
All treatments were well-tolerated by the animals with no significant body weight loss observed over the duration of the study (Table 5).

Data set [5] has as its system Hs 944.T xenografts. Kind of data set: Compound A efficacy in Hs 944.T xenografts in nude mice. The format is in vivo, mouse. The conditions noted are these: for Change in body weight (%, mean ± SEM) / Change in tumor volume (mm^3, mean ± SEM) / Survival / T/C (%): oral.
Data set [6] has as its system MEL-JUSO xenografts. Kind of data set: Compound A efficacy in MEL-JUSO xenografts in SCID-beige mice. Format: in vivo. The conditions noted are these: Compound A 150 mg/kg qd, oral.

Take `Cn1cnc2c(F)c(Nc3ccc(Br)cc3F)c(C(=O)NOCCO)cc21` [Compound B, 6-(4-bromo-2-fluorophenylamino)-7-fluoro-3-methyl-3H-benzoimidazole-5-carboxylic acid (2-hydroxyethyoxy)-amide]: the IC50 – broadly, the midpoint of a concentration-inhibition curve – in data set [1] came to 554 nM. In data set [2], this compound gave an IC50 of 990 nM. The same compound came in with an IC50 in data set [3] of 24 nM. In data set [4] (Compound B 3.5 mg/kg bid), the “Change in body weight (%, mean ± SEM)” value was −0.3 ± 2.1%; the “Change in tumor volume (mm^3, mean ± SEM)” value (shortened to “Change … (mm^3, mean ± SEM)”) turned out to be 59 ± 24 mm^3; the Survival is given as 6/6; the “T/C (%)” value is on record as 12%. Moreover, in data set [4] (Compound B 10 mg/kg bid), the “Change in body weight (%, mean ± SEM)” value is 5.1 ± 1.1%; the “Change … (mm^3, mean ± SEM)” value was −47 ± 11 mm^3; the “Regression (%)” value was 38%; the Survival was 6/6.
Take `CN(C)C(=O)c1cc2cnc(Nc3ccc(N4CCNCC4)cn3)nc2n1C1CCCC1` [Compound A, 7-Cyclopentyl-2-(5-piperazin-1-yl-pyridin-2-ylamino)-7H-pyrrolo[2,3-d]pyrimidine-6-carboxylic acid dimethylamide]: the IC50 in data set [1] worked out at 3830 nM; in data set [2], 750 nM; in data set [3], 360 nM. The “Animals classified as TR deaths due to body weight loss criteria” value in data set [5] (Compound A 150 mg/kg qd) is “Three animals each from the 150 mg/kg and 250 mg/kg Compound A treatment groups were classified as TR deaths due to body weight loss criteria, and excluded from data analysis”; in data set [5] (Compound A 250 mg/kg qd) it was “Three animals each from the 150 mg/kg and 250 mg/kg Compound A treatment groups were classified as TR deaths due to body weight loss criteria, and excluded from data analysis”. The “Change in body weight (%, mean ± SEM)” value in data set [5] (Compound A 150 mg/kg qd) is −12.7 ± 2.1%; in data set [5] (Compound A 250 mg/kg qd), −19.7 ± 0.6%; in data set [4] (Compound A 75 mg/kg qd), −3.9 ± 1.5%; in data set [4] (Compound A 150 mg/kg qd), −3.9 ± 2.1%; in data set [4] (Compound A 250 mg/kg qd), −2.7 ± 1.6%; in data set [6], −7.3 ± 1.2%. The “Change … (mm^3, mean ± SEM)” value in data set [5] (Compound A 150 mg/kg qd) is recorded as 86 ± 17 mm^3; in data set [5] (Compound A 250 mg/kg qd), 45 ± 25 mm^3; in data set [4] (Compound A 75 mg/kg qd), 236 ± 32 mm^3; in data set [4] (Compound A 150 mg/kg qd), 157 ± 33 mm^3; in data set [4] (Compound A 250 mg/kg qd) it was 9 ± 11 mm^3; in data set [6], −32 ± 14 mm^3. The Survival in data set [5] (Compound A 150 mg/kg qd) is 5/8; in data set [5] (Compound A 250 mg/kg qd), 5/8; in data set [4] (Compound A 75 mg/kg qd) it was 6/6; in data set [4] (Compound A 150 mg/kg qd), 6/6; in data set [4] (Compound A 250 mg/kg qd) it was 6/6; in data set [6] it was 6/6. For the same compound, the T/C (%) in data set [5] (Compound A 150 mg/kg qd) stood at 36%; in data set [5] (Compound A 250 mg/kg qd) it was 19%; in data set [4] (Compound A 75 mg/kg qd) it was 47%; in data set [4] (Compound A 150 mg/kg qd), 32%; in data set [4] (Compound A 250 mg/kg qd), 2%.
